Active and inactive are the calls of the source. The rule behind the calls is not given here.
Tests used:
Type in all cases: cell-based
[1] = biological target: T1, Peroxisome proliferator-activated receptor alpha (Homo sapiens) (UniProt Q07869); assay: Transactivation of human PPARalpha expressed in HEK293 cells at 150 uM incubated for 18 hrs by dual luciferase reporter gene assay relative to gemfibrozil
T1 sequence (whole entry): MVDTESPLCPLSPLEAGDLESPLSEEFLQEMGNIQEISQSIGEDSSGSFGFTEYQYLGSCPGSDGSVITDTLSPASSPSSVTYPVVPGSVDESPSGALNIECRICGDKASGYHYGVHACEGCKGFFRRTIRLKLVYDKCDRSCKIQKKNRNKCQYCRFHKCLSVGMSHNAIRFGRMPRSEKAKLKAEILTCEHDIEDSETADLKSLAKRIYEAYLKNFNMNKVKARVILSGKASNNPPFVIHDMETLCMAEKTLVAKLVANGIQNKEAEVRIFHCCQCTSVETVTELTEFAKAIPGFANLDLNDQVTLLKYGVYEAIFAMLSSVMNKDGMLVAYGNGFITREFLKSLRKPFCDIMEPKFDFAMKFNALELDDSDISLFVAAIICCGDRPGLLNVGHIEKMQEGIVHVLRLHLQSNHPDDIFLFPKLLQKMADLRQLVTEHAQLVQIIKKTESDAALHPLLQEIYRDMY

[2] = biological target: T1, Peroxisome proliferator-activated receptor alpha (Homo sapiens); assay: Agonist activity at PPARalpha in human HepG2 cells assessed as increase in CPT1A gene expression at 100 uM incubated for 24 hrs by real time quantitative PCR method relative to gemfibrozil
[3] = biological target: T1, Peroxisome proliferator-activated receptor alpha (Homo sapiens); assay: Agonist activity at PPARalpha in human HepG2 cells assessed as increase in CPT1A gene expression at 10 uM incubated for 24 hrs by real time quantitative PCR method
[4] = biological target: T2, Peroxisome proliferator-activated receptor alpha (Homo sapiens, UniProt Q07869); assay: Transactivation of human PPARalpha expressed in HEK293 cells incubated for 18 hrs by dual luciferase reporter gene assay
T2 sequence (Q07869 whole entry): T1 sequence (whole entry)

[5] = biological target: T1, Peroxisome proliferator-activated receptor alpha (Homo sapiens); assay: Agonist activity at PPARalpha in human HepG2 cells assessed as increase in CPT1A gene expression incubated for 24 hrs by real time quantitative PCR method
[6] = biological target: T1, Peroxisome proliferator-activated receptor alpha (Homo sapiens); assay: Agonist activity at PPARalpha in human HepG2 cells assessed as increase in CPT1A gene expression at 10 uM incubated for 24 hrs by real time quantitative PCR method relative to gemfibrozil
[7] = biological target: T1, Peroxisome proliferator-activated receptor alpha (Homo sapiens); assay: Agonist activity at PPARalpha in human HepG2 cells assessed as increase in CPT1A gene expression at EC50 incubated for 24 hrs by real time quantitative PCR method

Efficacy [1] [%]	EC50 [4] [µM]	further results	Structure (SMILES)
20	–	–	CC(C)(CCCOc1ccc(/C=C/c2ccc(Cl)cc2Cl)cc1Cl)C(=O)O
227	0.8	fold change (FC) [1]: 2; fold change (FC) [2]: 2; Activity [3]: Active; Activity [5]: Dose-dependent effect	CC(C)(CCCOc1ccc(/C=C/c2ccc(Cl)cc2)cc1)C(=O)O
118	3.3	–	Cc1ccc(/C=C/c2ccc(OCCCC(C)(C)C(=O)O)cc2)cc1
29	–	–	CC(C)(CCCOc1ccc(/C=C/c2ccc(N)cc2)cc1)C(=O)O
46	–	–	CC(C)(CCCOc1ccc(/C=C/c2ccccc2)cc1Cl)C(=O)O
17	–	–	CC(C)c1ccc(/C=C/c2ccc(OCCCC(C)(C)C(=O)O)cc2)cc1
152	3.8	–	CC(C)(CCCOc1ccc(/C=C/c2ccsc2)cc1)C(=O)O
–	–	fold change (FC) [6]: 2; fold change (FC) [1]: 2; fold change (FC) [2]: 6; Activity [5]: Dose-dependent effect	CC(C)(CCCOc1ccc(/C=C/c2ccccc2)cc1)C(=O)O
115	103	–	CC(C)(CCCOc1ccc(/C=C/c2ccncc2)cc1)C(=O)O
123	90	–	CC(C)(CCCOc1ccc(/C=C/c2ccc3ccccc3c2)cc1)C(=O)O
205	0.76	fold change (FC) [1]: 2; fold change (FC) [2]: 2; Activity [3]: Active; Activity [5]: Dose-dependent effect	CC(C)(CCCOc1ccc(/C=C/c2ccc(C(F)(F)F)cc2)cc1)C(=O)O
–	–	Activity [7]: Active	Cc1ccc(C)c(OCCCC(C)(C)C(=O)O)c1
32	–	–	CC(C)(CCCOc1ccc(/C=C/c2ccc(Cl)cc2Cl)cc1)C(=O)O
23	–	–	CC(C)(CCCOc1ccc(/C=C/c2ccc(C#N)cc2)cc1)C(=O)O
164	28.4	–	COc1ccc(/C=C/c2ccc(OCCCC(C)(C)C(=O)O)cc2)cc1

Source: ChEMBL document CHEMBL3751672, “PPAR agonists based on stilbene and its bioisosteres: biological evaluation and docking studies” (Medchemcomm, 2015)
